Reference: article PMC6149853, “Species-Specific Inactivation of Triosephosphate Isomerase from Trypanosoma brucei: Kinetic and Molecular Dynamics Studies” (Molecules : A Journal of Synthetic Chemistry and Natural …, 2017)

Experiments:
[1] = target: T1, HsTIM (human triosephosphate isomerase) (Homo sapiens, UniProt P60174); test: residual activity after […] h preincubation; alpha-GPDH coupled assay, NADH at […] nm; format: biochemical; details: 5 µg/mL enzyme preincubated with compound 2 h at 36 °C, 10% DMSO, 10 mM EDTA, pH 7.4; assay 1 mM GAP, 25 °C
T1 construct: gene TPI1
T1 sequence (P60174 2-249): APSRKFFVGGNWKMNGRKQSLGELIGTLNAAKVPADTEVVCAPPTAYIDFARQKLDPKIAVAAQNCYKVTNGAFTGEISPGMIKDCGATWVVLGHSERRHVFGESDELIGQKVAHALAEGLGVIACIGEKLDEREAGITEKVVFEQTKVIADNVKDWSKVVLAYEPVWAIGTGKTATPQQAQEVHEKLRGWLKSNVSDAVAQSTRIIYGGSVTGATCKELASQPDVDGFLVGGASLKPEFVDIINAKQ

[2] = target: T2, TbTIM (triosephosphate isomerase from Trypanosoma brucei) (Trypanosoma brucei, UniProt P04789); test: as above; format: biochemical; details: read-out: I50
T2 construct: homodimer; 250 residues per monomer
T2 sequence (P04789 whole entry): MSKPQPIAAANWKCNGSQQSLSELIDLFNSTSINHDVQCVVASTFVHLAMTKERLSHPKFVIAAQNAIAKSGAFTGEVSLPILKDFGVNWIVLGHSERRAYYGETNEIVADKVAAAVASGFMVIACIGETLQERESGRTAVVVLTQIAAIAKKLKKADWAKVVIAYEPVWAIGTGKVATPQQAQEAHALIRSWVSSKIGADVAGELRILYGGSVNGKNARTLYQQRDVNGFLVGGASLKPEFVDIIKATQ

COC(=O)Nc1nc2cc(Oc3cccc4ccccc34)ccc2[nH]1 [compound 1, Methyl(5-(naphthalen-1-yloxy)-1H-benzimidazol-2-yl)carbamate]
% inactivation at 100 μM [1]: 12% | IC50 [2]: 84 µM

CSc1nc2ccc(C(=O)N/N=C/c3ccc([N+](=O)[O-])o3)cc2[nH]1 [compound 3, (E)-2-(Methylthio)-N′-((5-nitrofuran-2-yl)methylene)-1H-benzimidazole-5-carbohydrazide]
IC50 [2]: 73 µM

COC(=O)Nc1nc2cc(Oc3ccc(Cl)c4ccccc34)ccc2[nH]1 [compound 2, Methyl(5-((4-chloronaphthalen-1-yl)oxy)-1H-benzimidazol-2-yl)carbamate]
% inactivation at 100 μM [1]: 23% | IC50 [2]: 82 µM
